Results published in patent US8084196B2, “Method for the in vitro screening of anti-cancer compounds that inhibits SK3 activity, and said anti-cancer compounds” (priority 2006, dated 2011).

How the values were obtained:
SK3 = SK3 (Homo sapiens, UniProt Q9UGI6); conditions: apamin: low concentration (1 nM); cited from earlier work
MDA-MB-435s cells [1] = type: cell-based, human; conditions: current-clamp, FIG. 2D
Experimental: D—Variations of membrane potential recorded in control conditions (PSS without drugs, n=11) and in presence of TEA (n=7), 4-AP (n=8) and TEA plus 4-AP (n=3). Membrane potential was measured in current-clamp mode (I=0) just after the disruption of the patch membrane.
(§3) Whole-cell potassium currents and intracellular Ca^2+ ([Ca^2+]i) measurements were recorded as described (Roger S, Potier M, Vandier C, Le Guennec J Y, Besson P. Description and role in proliferation of iberiotoxin-sensitive currents in different human mammary epithelial normal and cancerous cells. (Biochim Biophys Acta 2004; 1667:190-9.). Signals were captured using 1322-A Digidata converter (Axon Instruments, USA) and pClamp 8.1 software (Axon Instruments, USA). The analysis were performed using Clampfit 8.1 and Origin 7.0 softwares (Microcal Software, Northampton, Mass., USA).
(§4) The physiological saline solution (PSS) in mM: NaCl 140, MgCl2 1, KCl 4, CaCl2 2, D-glucose 11.1, and HEPES 10, adjusted to pH 7.4 with NaOH. The pipette solution for the whole-cell recording, pCa=7 was (in mM): K-glutamate 125, KCl 20, CaCl2 0.37, MgCl2 1, Mg-ATP 1, EGTA 1, HEPES 10, adjusted to pH 7.2 with KOH. […] All drugs and chemicals were purchased from Sigma-Aldrich (St Quentin, France), except Lei-Dab7 which was a generous gift from Dr. J. M. Sabatier, UMR CNRS 6560, Marseille, France.

MDA-MB-435s cells [2] = conditions: for decrease of outward currents: FIG. 2C
Experimental: Currents were generated by stepwise 8 mV depolarizing pulses (400 ms duration; 5 sec intervals) from a constant holding potential of −70 mV up to +58 mV. Signals were filtered at 1 kHz and digitized at 10 kHz.
B, C—Current-density was obtained by dividing the averaged steady-state current elicited at +26 mV (recorded during the latest 50 ms of the pulse) by the respective cell capacitance. Membrane capacitance was calculated by integrating the capacitive current measured during a 10 mV voltage step.
as §3, §4

SK2 = SK2 (Homo sapiens, UniProt Q9H2S1); conditions: apamin: low concentration (1 nM); cited from earlier work
MDA-MB-435s cells [3] = type: cell-based, human; conditions: FIG. 4A; for number of migrating cells after siRNA transfection: MDA-MB-435s, 24, 48, 72 h after transfection
Experimental: Cells were seeded at 40000 in a cell culture insert in DMEM with 5% FBS±drugs or [K^+] 60 mM. […] 60 mM. After 24 h, cells of the lower compartment were stained with hematoxylin (A, bottom) and counted. The normalized cell number corresponded to the ratio of total number of migrating cells in presence of drug or [K^+] 60 mM/total number of migrating cells in control experiments. […] Scale bar=10 μm for the two panels.
(§1) Cell proliferation was determined using the tetrazolium salt reduction method, as described (Roger S, Potier M, Vandier C, Le Guennec J Y, Besson P. Description and role in proliferation of iberiotoxin-sensitive currents in different human mammary epithelial normal and cancerous cells. Biochim Biophys Acta 2004; 1667:190-9.). Cells were seeded on 24-well plates and grown for 48 h. […] Cell migration was analyzed in 24-well plates receiving 8-μm pore size polyethylene terephtalate membrane cell culture inserts (Becton Dickinson, France), as described (Roger S, Potier M, Vandier C, Le Guennec J Y, Besson P. Description and role in proliferation of iberiotoxin-sensitive currents in different human mammary epithelial normal and cancerous cells. Biochim Biophys Acta 2004; 1667:190-9.).

SK3 protein [4] = test: Western blot of SK3 protein after siRNA transfection, 518A2; type: cell-based, human; conditions: 518A2, 48 hours after transfection vs scrambled-siRNA, FIG. 8A
Experimental: FIG. 8A—Western blot patterns showing the silencing effect on the expression of SK3 protein of two siRNAs designed against SK3 mRNA. Cells were transfected with siRNA-lipofectamine complexes for 48 h. A scrambled-siRNA was used as negative control. siRNA oligonucleotide sequences are listed in the Materials and Methods section.
(§2) For Western blot experiments, proteins were electrotransferred onto polyvinylidene fluoride membranes which were incubated with antibodies directed against SK2 and SK3 proteins (1:1000) followed by incubation with a horseradish peroxidase-conjugated anti-rabbit IgG (1:5000; Tebu-Bio, France). Anti-SK2 directed against amino acids 542-559 and anti-SK3 directed against amino acids 2-21 (Sigma-Aldrich, France) were used for Western blot and immunocytochemical experiments. Anti-Actin directed against amino acids 20-33 (Sigma-Aldrich, France) was used for western blot loading control experiments.
Two SK3 specific siRNA were designed: first set, hSK3-ex1-Sense 5′-GAAAGCGACUGAGUGACUAdTdT-3′ (sequence SEQ ID No. 5) and hSK3-ex1-Antisense 5′-UAGUCACUCAGUCGCUUCdTdT-3′, (sequence SEQ ID N 06) located in exon 1; second set, hSK3-ex3-Sense 5′-CCAUUCCUGGCGAGUACAAdTdT-3′ (sequence SEQ ID No. 7) and hSK3-ex3-Antisense 5′-UUGUACUCGCCAGGAAUGGdTdT-3′, (sequence SEQ ID No. 8) located in exon 3. […]

518A2 cells = test: Cell migration, 518A2 melanoma cells; type: cell-based; conditions: 518A2, 48 hours after transfection, FIG. 8B
Experimental: Histograms showing the effect of 10 nM apamin on cell migration (FIG. 5A). Cells were seeded at 40000 in a cell culture insert in DMEM with 5% FBS±apamin. The lower compartment of the insert contained DMEM with 10% FBS as a chemoattractant±apamin. After 24 h, cells of the lower side were stained with hematoxylin (FIG. 5B, right) and counted. The normalized cell number corresponded to the ratio of total number of migrating cells in presence of apamin/total number of migrating cells in control experiments. The apamin concentration selected has no effect on cell proliferation and viability. […] Mammary cancer MDA-MB-435s cells were used as control cell. […]
as §1, with “1667:190-9.).” for “1667:190-9.). Cells were seeded on 24-well plates and grown for 48 h.”

SK3 protein [5] = test: Western blot of SK3 protein after siRNA transfection, MDA-MB-435s; type: cell-based, human; conditions: 24, 48, 72 h after transfection vs scrambled-siRNA, greatest effect at 72 hours
Experimental: A—Top, Western blot patterns showing the silencing effect on the expression of SK3 protein—of two siRNAs designed against SK3 mRNA. Cells were transfected with siRNA-lipofectamine complexes for 24 h, 48 h and 72 h. A scrambled-siRNA was used as negative control. SiRNA oligonucleotide sequences are listed in the Materials and Methods section. Bottom, Histograms showing the inhibitory effect on […] cell migration after 24 h, 48 h and 72 h siRNA transfection with or without 10 nM apamin. Results from two separate experiments performed in triplicate are expressed as mean±S.E.M. Normalization of cell number performed as described in the legend of FIG. 1. Note that the cells have lost their sensitivity for apamin after siRNA transfection, indicating a specific effect on SK3 protein.
as §2, with “control experiments. […]” for “control experiments.”

Chain of SK3 protein (Q9UGI6 other isoform, or with tags, fused parts or gaps DUP76-80): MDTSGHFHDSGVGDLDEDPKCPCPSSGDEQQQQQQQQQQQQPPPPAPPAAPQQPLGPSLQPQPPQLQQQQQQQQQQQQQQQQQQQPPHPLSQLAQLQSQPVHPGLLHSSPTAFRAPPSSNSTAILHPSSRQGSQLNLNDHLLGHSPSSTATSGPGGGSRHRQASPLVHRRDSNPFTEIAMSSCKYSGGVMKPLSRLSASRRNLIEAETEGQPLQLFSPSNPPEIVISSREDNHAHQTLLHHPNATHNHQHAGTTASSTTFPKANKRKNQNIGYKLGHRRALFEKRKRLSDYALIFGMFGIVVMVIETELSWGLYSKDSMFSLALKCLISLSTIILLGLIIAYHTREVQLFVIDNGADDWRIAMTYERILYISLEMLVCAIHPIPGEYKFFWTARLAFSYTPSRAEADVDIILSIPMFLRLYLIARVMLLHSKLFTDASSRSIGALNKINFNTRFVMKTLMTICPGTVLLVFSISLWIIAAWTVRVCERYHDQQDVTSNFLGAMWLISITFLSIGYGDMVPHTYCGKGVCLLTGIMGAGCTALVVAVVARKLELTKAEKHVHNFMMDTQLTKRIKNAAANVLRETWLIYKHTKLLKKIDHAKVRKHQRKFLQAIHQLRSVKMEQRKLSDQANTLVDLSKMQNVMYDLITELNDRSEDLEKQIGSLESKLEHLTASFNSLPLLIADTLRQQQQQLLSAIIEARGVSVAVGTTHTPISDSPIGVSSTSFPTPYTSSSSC
Chain of SK3 (Q9UGI6 whole entry): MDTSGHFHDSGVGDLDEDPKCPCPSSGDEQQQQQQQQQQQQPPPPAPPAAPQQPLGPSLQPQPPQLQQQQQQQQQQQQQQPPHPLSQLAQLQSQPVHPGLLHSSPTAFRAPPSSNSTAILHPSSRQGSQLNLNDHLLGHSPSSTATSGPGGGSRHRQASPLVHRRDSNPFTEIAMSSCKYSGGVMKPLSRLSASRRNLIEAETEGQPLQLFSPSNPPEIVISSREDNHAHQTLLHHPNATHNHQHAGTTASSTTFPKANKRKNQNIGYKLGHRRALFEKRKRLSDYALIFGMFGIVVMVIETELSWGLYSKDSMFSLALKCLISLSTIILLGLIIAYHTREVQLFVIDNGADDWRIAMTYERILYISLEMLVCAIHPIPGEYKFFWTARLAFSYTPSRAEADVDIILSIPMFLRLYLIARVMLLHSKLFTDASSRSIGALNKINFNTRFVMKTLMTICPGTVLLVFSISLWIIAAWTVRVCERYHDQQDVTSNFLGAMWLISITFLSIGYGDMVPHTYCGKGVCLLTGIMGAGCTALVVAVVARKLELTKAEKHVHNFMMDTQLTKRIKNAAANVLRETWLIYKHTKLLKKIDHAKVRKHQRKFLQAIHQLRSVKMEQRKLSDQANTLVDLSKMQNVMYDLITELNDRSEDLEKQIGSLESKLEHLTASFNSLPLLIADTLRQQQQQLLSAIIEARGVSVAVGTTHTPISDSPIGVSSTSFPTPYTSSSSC
Chain of SK2 (Q9H2S1 whole entry): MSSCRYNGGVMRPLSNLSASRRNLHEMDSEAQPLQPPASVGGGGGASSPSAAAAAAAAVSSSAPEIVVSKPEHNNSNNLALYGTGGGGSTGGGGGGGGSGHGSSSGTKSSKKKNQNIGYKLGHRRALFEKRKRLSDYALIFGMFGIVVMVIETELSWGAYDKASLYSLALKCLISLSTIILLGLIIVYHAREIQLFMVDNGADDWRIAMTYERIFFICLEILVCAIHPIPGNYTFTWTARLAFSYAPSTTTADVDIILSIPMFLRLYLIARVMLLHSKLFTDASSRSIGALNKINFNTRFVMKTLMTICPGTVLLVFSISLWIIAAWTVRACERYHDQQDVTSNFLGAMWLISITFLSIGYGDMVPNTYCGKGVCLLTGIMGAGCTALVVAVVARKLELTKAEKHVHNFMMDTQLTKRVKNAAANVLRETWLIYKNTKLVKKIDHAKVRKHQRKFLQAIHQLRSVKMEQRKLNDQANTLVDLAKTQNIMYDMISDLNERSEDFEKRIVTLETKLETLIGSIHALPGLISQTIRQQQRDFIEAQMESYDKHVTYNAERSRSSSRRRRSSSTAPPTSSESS

Molecule	block of SK3 channel (SK3)	effect on membrane potential (MDA-MB-435s cells [1])	decrease of outward currents (MDA-MB-435s cells [2]) [%]	number of migrating cells after siRNA transfection (MDA-MB-435s cells [3])	SK3 expression (Western blot) (SK3 protein [5])	other results
Nc1ccncc1 [4-AP, 4-aminopyridine]	blocks	depolarized	50	–	–	–
CC[N+](CC)(CC)CC [TEA, tetraethylammonium]	blocks	depolarized	50	–	–	block of SK2 channel (SK2): blocks
CC(C)C[C@@H]1NC(=O)[C@H](C)NC(=O)[C@H]([C@@H](C)O)NC(=O)[C@H](CCC(=O)O)NC(=O)[C@@H]2CCCN2C(=O)[C@H](C)NC(=O)[C@H](CCCCN)NC(=O)[C@@H]2CSSC[C@@H](C(=O)N[C@@H](CCC(N)=O)C(=O)N[C@@H](CCC(N)=O)C(=O)N[C@@H](Cc3cnc[nH]3)C(N)=O)NC(=O)[C@H](CCCNC(=N)N)NC(=O)[C@H](CCCNC(=N)N)NC(=O)[C@H](C)NC(=O)[C@H](CSSC[C@H](N)C(=O)N[C@@H](CC(N)=O)C(=O)N2)NC1=O [apamin]	–	–	–	–	–	IC50 (MDA-MB-435s cells [2]; read-out: estimated IC50 of block of outward currents, whole-cell, dose-dependent, FIG. 2B): < 0.1 nM
ΔExon1-siRNA: siRNA against SK3 exon 1, sense 5′-GAAAGCGACUGAGUGACUAdTdT-3′ (SEQ ID No. 5), antisense SEQ ID No. 6 (sense GAAAGCGACUGAGUGACUADTDT; antisense UAGUCACUCAGUCGCUUCDTDT; chemistry not fully specified)	–	–	–	markedly reduced	marked suppression	SK3 expression (Western blot) (SK3 protein [4]): decrease; number of migrating cells after siRNA transfection (518A2 cells): markedly reduced
ΔExon3-siRNA: siRNA against SK3 exon 3, sense 5′-CCAUUCCUGGCGAGUACAAdTdT-3′ (SEQ ID No. 7), antisense SEQ ID No. 8 (sense CCAUUCCUGGCGAGUACAADTDT; antisense UUGUACUCGCCAGGAAUGGDTDT; chemistry not fully specified)	–	–	–	markedly reduced	marked suppression	relative efficiency of the siRNAs (Western blot and migration) (MDA-MB-435s cells [3]; MDA-MB-435s): more efficient than ΔExon1-siRNA
